Laboratory results: patent publication US8148391B2 (Cephalon, Inc., priority 2006, dated 2012)
Read-outs that look alike come from different tables or passages of the source.

Experiments:
[1] = biological target: T1, baculovirus-expressed ALK (Homo sapiens, UniProt Q9UM73); assay: ALK Kinase Assay (ELISA-type, time-resolved fluorescence); format: biochemical
T1 construct: host or cells: baculovirus expression system
In short: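 Substrate coating: phospholipase C-γ, 10 μg/mL in TBS. Kinase step: 30 ng/ml ALK, 15 min, 37° C. Detection and analysis: Eu-N1 PT66 antibody, with IC50 fitted as a sigmoidal variable-slope dose-response curve.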

[2] = biological target: T2, c-Met (cytoplasmic domain) (Homo sapiens, UniProt P08581); assay: c-Met Kinase Assay (same methods as for ALK, with modifications); format: biochemical
T2 construct: 10 ng/mL c-Met (cytoplasmic domain, Invitrogen Corporation #PV3143); purchased Invitrogen Corporation PV3143
In short: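 This plate-based kinase format uses immobilized phospholipase C-γ as substrate, phosphorylated by c-Met cytoplasmic domain (10 ng/mL) at 37° C for 15 minutes.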

[3] = ALK kinase inhibition, 1 μM ATP (Km level), read-out: ALK Activity
[4] = c-Met kinase inhibition, 1 μM ATP (Km level), read-out: cMet Activity
[5] = 1 μM ATP (Km level), 30 ng/ml ALK, 37° C., 15 minutes, read-out: ALK Activity (ALK kinase inhibition, IC50 class)
[6] = 1 μM ATP (Km level), 10 ng/mL c-Met, read-out: cMet Activity (c-Met kinase inhibition, IC50 class)
[7] = ALK kinase inhibition, 1 μM ATP, read-out: ALK Activity
[8] = c-Met kinase inhibition, 1 μM ATP, read-out: cMet Activity
[9] = 1 μM ATP (Km level), read-out: ALK Activity (ALK Kinase Inhibition, IC50)
[10] = 1 μM ATP (Km level), read-out: cMet Activity (c-Met Kinase Inhibition, IC50)

T2 sequence (P08581 956-1390 limits assumed): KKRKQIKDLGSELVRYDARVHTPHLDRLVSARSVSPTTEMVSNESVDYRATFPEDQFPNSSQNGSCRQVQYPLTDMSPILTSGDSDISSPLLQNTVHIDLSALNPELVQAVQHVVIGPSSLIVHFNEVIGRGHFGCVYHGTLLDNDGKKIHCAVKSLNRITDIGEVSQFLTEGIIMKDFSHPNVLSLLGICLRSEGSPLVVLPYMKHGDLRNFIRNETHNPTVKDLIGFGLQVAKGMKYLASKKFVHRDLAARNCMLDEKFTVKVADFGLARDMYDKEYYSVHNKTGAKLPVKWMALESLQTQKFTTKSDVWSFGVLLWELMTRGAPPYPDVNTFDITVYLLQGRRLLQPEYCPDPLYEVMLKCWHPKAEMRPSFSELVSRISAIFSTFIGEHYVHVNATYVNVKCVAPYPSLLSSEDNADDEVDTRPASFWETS
T1 sequence (Q9UM73 19-1620): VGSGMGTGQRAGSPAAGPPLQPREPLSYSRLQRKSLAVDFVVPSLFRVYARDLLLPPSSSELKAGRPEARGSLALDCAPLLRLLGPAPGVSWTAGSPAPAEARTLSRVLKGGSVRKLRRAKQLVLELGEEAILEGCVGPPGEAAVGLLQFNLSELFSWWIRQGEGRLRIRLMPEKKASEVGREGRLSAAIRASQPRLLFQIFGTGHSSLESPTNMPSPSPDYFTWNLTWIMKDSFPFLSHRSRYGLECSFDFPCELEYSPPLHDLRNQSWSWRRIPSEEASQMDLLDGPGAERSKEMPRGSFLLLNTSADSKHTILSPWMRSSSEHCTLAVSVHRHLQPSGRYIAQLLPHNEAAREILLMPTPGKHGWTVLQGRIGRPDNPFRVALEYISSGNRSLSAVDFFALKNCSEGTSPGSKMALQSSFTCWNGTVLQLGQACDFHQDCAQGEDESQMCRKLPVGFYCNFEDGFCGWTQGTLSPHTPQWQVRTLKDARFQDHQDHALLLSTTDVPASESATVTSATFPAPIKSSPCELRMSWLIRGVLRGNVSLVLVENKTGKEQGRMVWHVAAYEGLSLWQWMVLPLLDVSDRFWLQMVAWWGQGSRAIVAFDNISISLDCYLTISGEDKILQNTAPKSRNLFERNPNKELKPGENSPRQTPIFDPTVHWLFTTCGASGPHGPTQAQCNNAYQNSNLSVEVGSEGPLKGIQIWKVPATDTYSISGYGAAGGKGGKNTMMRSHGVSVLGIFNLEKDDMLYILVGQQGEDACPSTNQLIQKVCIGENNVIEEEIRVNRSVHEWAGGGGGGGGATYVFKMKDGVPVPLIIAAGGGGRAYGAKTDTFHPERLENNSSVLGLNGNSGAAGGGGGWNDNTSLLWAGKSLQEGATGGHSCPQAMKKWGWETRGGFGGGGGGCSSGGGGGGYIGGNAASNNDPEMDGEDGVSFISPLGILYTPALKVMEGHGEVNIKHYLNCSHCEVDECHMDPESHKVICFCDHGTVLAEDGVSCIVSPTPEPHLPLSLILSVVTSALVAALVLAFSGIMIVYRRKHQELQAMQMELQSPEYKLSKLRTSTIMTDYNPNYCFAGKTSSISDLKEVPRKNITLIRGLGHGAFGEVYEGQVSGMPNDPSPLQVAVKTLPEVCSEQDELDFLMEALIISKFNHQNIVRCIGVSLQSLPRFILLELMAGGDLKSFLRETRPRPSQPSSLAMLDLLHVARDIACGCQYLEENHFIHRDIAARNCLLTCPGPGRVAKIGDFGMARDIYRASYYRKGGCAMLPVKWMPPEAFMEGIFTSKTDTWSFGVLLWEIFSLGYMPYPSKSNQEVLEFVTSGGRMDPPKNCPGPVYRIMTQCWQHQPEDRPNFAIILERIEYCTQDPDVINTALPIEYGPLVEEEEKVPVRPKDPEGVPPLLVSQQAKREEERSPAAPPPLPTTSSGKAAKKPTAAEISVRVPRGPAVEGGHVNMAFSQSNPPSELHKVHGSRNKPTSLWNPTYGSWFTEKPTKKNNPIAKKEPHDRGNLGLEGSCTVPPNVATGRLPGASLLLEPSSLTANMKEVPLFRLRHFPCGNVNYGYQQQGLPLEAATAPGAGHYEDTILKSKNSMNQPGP

SMILES: COc1cc2c(cc1Nc1ncc(Cl)c(Nc3ccc(N4CCOCC4)cc3OC)n1)CCN(C[C@H](O)C(F)(F)F)CC2 [Example 462, (S)-3-{7-[5-Chloro-4-(2-methoxy-4-morpholin-4-yl-phenylamino)-pyrimidin-2-ylamino]-8-methoxy-1,2,4,5-tetrahydro-benzo[d]azepin-3-yl}-1,1,1-trifluoro-propan-2-ol]
- IC50 [1, 3]: < 100 nM
- IC50 [2, 4]: > 10000 nM

SMILES: C#CCN1CC2OC(C1)c1cc(Nc3ncc(Cl)c(Nc4ccccc4C(=O)NC)n3)ccc12 (stereo not drawn) [Example 63, 2-[5-Chloro-2-(10-prop-2-ynyl-12-oxa-10-aza-tricyclo[6.3.1.0*2,7*]dodeca-2,4,6-trien-4-ylamino)-pyrimidin-4-ylamino]-N-methyl-benzamide]
- IC50 [1, 3]: 100 to 1000 nM
- IC50 [2, 4]: < 100 nM

SMILES: CCN1C(=O)[C@H](N(C)C)CCc2c1ccc(Nc1ncc(Cl)c(N[C@H]3[C@@H](C(N)=O)[C@@H]4C=C[C@H]3C4)n1)c2OC (single isomer, unassigned) [Example 1346]
- IC50 [1, 5]: < 100 nM
- IC50 [2, 6]: 1000 to 10000 nM

SMILES: CC(=O)N1CCC(=O)NCc2cc(Nc3ncc(Cl)c(Nc4ccccc4OCC#N)n3)ccc21 [Example 1231, {2-[2-(1-Acetyl-4-oxo-1,2,3,4,5,6-hexahydro-benzo[b][1,5]diazocin-8-ylamino)-5-chloro-pyrimidin-4-ylamino]-phenoxy}-acetonitrile]
- IC50 [1, 5]: < 100 nM
- IC50 [2, 6]: < 100 nM

SMILES: CNC(=O)c1scc(C)c1Nc1nc(Nc2ccc3c(c2)CNC(=O)CC3)ncc1Cl [Example 1795, 3-[5-Chloro-2-(3-oxo-2,3,4,5-tetrahydro-1H-benzo[c]azepin-8-ylamino)-pyrimidin-4-ylamino]-4-methyl-thiophene-2-carboxylic acid methylamide]
- IC50 [1, 7]: 1000 to 10000 nM
- IC50 [2, 8]: < 100 nM

SMILES: COCCNC1CCc2cc(Nc3ncc(Cl)c(Nc4ccccc4-n4cccn4)n3)c(OC)cc2CC1 (stereo not drawn) [Example 1085, 5-Chloro-N*2*-[3-methoxy-7-(2-methoxy-ethylamino)-6,7,8,9-tetrahydro-5H-benzocyclohepten-2-yl]-N*4*-(2-pyrazol-1-yl-phenyl)-pyrimidine-2,4-diamine]
- IC50 [1, 5]: < 100 nM
- IC50 [2, 6]: > 10000 nM

SMILES: CCN1CCN(CC)c2cc(Nc3nc(Nc4cc5c(cc4OC)CCN(CC(=O)N(C)C)CC5)ncc3Cl)ccc2C1=O [Example 724, 2-{7-[5-Chloro-4-(1,4-diethyl-5-oxo-2,3,4,5-tetrahydro-1H-benzo[e][1,4]diazepin-8-ylamino)-pyrimidin-2-ylamino]-8-methoxy-1,2,3,4-tetrahydro-benzo[d]azepin-3-yl}-N,N-dimethyl-acetamide]
- IC50 [1, 9]: < 100 nM
- IC50 [2, 10]: > 10000 nM

SMILES: CC(=O)OCCN1CCN(C)c2cc(Nc3ncc(Cl)c(Nc4ccccc4NS(C)(=O)=O)n3)ccc2C1 [Example 473, Acetic acid 2-{8-[5-chloro-4-(2-methanesulfonylamino-phenylamino)-pyrimidin-2-ylamino]-1-methyl-1,2,3,5-tetrahydro-benzo[e][1,4]diazepin-4-yl}-ethyl ester]
- IC50 [1, 3]: < 100 nM
- IC50 [2, 4]: 100 to 1000 nM

SMILES: CC(C)N1C(=O)CCC(C)(C)c2ccc(Nc3ncc(Cl)c(N[C@H]4[C@@H](C(N)=O)[C@@H]5C=C[C@H]4C5)n3)cc21 [Example 1590, (1S,2S,3R,4R)-3-[5-Chloro-2-(1-isopropyl-5,5-dimethyl-2-oxo-2,3,4,5-tetrahydro-1H-benzo[b]azepin-8-ylamino)-pyrimidin-4-ylamino]-bicyclo[2.2.1]hept-5-ene-2-carboxylic acid amide]
- IC50 [1, 7]: < 100 nM
- IC50 [2, 8]: 1000 to 10000 nM

SMILES: CNC(=O)c1ccccc1Nc1nc(Nc2ccc3c(c2)CCC(F)(F)CC3)ncc1Cl [Example 180, 2-[5-Chloro-2-(7,7-difluoro-6,7,8,9-tetrahydro-5H-benzocyclohepten-2-ylamino)-pyrimidin-4-ylamino]-N-methyl-benzamide]
- IC50 [1, 3]: < 100 nM
- IC50 [2, 4]: 100 to 1000 nM

SMILES: COc1ccc(Nc2nc(Nc3cc4c(cc3OC)CN(CC3CC3)CC(=O)N4C)ncc2Cl)c(-n2cccn2)c1 [Example 748, 8-[5-Chloro-4-(4-methoxy-2-pyrazol-1-yl-phenylamino)-pyrimidin-2-ylamino]-cyclopropylmethyl-7-methoxy-1-methyl-1,3,4,5-tetrahydro-benzo[e][1,4]diazepin-2-one]
- IC50 [1, 9]: < 100 nM
- IC50 [2, 10]: > 10000 nM

SMILES: CNC(=O)c1cccc(F)c1Nc1nc(Nc2ccc3c(c2)N(C(=O)CN)CCCC3(C)C)ncc1Cl [Example 1617, 2-{2-[1-(2-Amino-acetyl)-5,5-dimethyl-2,3,4,5-tetrahydro-1H-benzo[b]azepin-8-ylamino]-5-chloro-pyrimidin-4-ylamino}-3-fluoro-N-methyl-benzamide]
- IC50 [1, 7]: 100 to 1000 nM
- IC50 [2, 8]: < 100 nM

SMILES: COc1cc2c(cc1Nc1ncc(Cl)c(Nc3ccccc3S(=O)(=O)N3CCN(C)CC3)n1)CCN(CC(=O)N(C)C)CC2 [Example 837, 2-(7-{5-Chloro-4-[2-(4-methyl-piperazine-1-sulfonyl)-phenylamino]-pyrimidin-2-ylamino}-8-methoxy-1,2,4,5-tetrahydro-benzo[d]azepin-3-yl)-N,N-dimethyl-acetamide]
- IC50 [1, 9]: < 100 nM
- IC50 [2, 10]: > 10000 nM

SMILES: CCN1C(=O)C(NC(=O)COC)CCc2c1ccc(Nc1ncc(Cl)c(Nc3ccccc3S(=O)(=O)N(C)C)n1)c2OC (stereo not drawn) [Example 1352, N-{7-[5-Chloro-4-(2-dimethylsulfamoyl-phenylamino)-pyrimidin-2-ylamino]-1-ethyl-6-methoxy-2-oxo-2,3,4,5-tetrahydro-1H-benzo[b]azepin-3-yl}-2-methoxy-acetamide]
- IC50 [1, 5]: < 100 nM
- IC50 [2, 6]: > 10000 nM

SMILES: Cc1nnc(-c2ccccc2Nc2nc(Nc3ccc4c(c3)CCOC(=O)N4C)ncc2Cl)o1 [Example 1786, 2-{5-Chloro-4-[2-(5-methyl-[1,3,4]oxadiazol-2-yl)-phenylamino]-pyrimidin-2-ylamino}-5-methyl-8,9-dihydro-5H-7-oxa-5-aza-benzocyclohepten-6-one]
- IC50 [1, 7]: 100 to 1000 nM
- IC50 [2, 8]: < 100 nM

SMILES: COc1cc(N2CCOCC2)ccc1Nc1nc(Nc2ccc(OC)c3c2N(C)C(=O)CCC3)ncc1Cl [Example 124, 9-[5-Chloro-4-(2-methoxy-4-morpholin-4-yl-phenylamino)-pyrimidin-2-ylamino]-6-methoxy-1-methyl-1,3,4,5-tetrahydro-benzo[b]azepin-2-one]
- IC50 [1, 3]: < 100 nM
- IC50 [2, 4]: > 10000 nM

SMILES: COCCN1CCc2ccc(Nc3ncc(Cl)c(Nc4ccc(N(C)C)cc4S(=O)(=O)N(C)C)n3)cc2CC1 [Example 852, 2-{5-Chloro-2-[3-(2-methoxy-ethyl)-2,3,4,5-tetrahydro-1H-benzo[d]azepin-7-ylamino]-pyrimidin-4-ylamino}-5-dimethylamino-N,N-dimethyl-benzenesulfonamide]
- IC50 [1, 9]: < 100 nM
- IC50 [2, 10]: 1000 to 10000 nM

SMILES: COc1cc2c(cc1Nc1ncc(Cl)c(Nc3ccc(N4CCOCC4)cc3OC)n1)CCN(CCN1CCOCC1)CC2 [Example 1523, 5-Chloro-N(2)-[8-methoxy-3-(2-morpholin-4-yl-ethyl)-2,3,4,5-tetrahydro-1H-3-benzazepin-7-yl]-N(4)-(2-methoxy-4-morpholin-4-yl-phenyl)-pyrimidine-2,4-diamine]
- IC50 [1, 7]: < 100 nM
- IC50 [2, 8]: > 10000 nM

SMILES: COc1cc2c(cc1Nc1ncc(Cl)c(Nc3cccnc3OC)n1)CCN(CC(=O)N(C)C)CC2 [Example 1190, 2-{7-[5-Chloro-4-(2-methoxy-pyridin-3-ylamino)-pyrimidin-2-ylamino]-8-methoxy-1,2,4,5-tetrahydro-benzo[d]azepin-3-yl}-N,N-dimethyl-acetamide]
- IC50 [1, 5]: < 100 nM
- IC50 [2, 6]: > 10000 nM

SMILES: CNC(=O)c1ccccc1Nc1nc(Nc2cc3c(cc2OC)CC(=O)NCC3)ncc1Cl [Example 264, 2-[5-Chloro-2-(8-methoxy-2-oxo-2,3,4,5-tetrahydro-1H-benzo[d]azepin-7-ylamino)-pyrimidin-4-ylamino]-N-methyl-benzamide]
- IC50 [1, 3]: < 100 nM
- IC50 [2, 4]: 1000 to 10000 nM

SMILES: CNC(=O)c1cccc(F)c1Nc1nc(Nc2ccc3c(c2)N(C(=O)CN2CCCC2)CCCO3)ncc1Cl [Example 1704, 2-{5-Chloro-2-[9-(2-pyrrolidin-1-yl-acetyl)-6,7,8,9-tetrahydro-5-oxa-9-aza-benzocyclohepten-2-ylamino]-pyrimidin-4-ylamino}-3-fluoro-N-methyl-benzamide]
- IC50 [1, 7]: 1000 to 10000 nM
- IC50 [2, 8]: 100 to 1000 nM

SMILES: COCCN1CCc2ccc(Nc3ncc(Cl)c(Nc4ccccc4C(=O)NC4CC4)n3)cc2CC1 [Example 344, 2-{5-Chloro-2-[3-(2-methoxy-ethyl)-2,3,4,5-tetrahydro-1H-benzo[d]azepin-7-ylamino]-pyrimidin-4-ylamino}-N-cyclopropyl-benzamide]
- IC50 [1, 3]: < 100 nM
- IC50 [2, 4]: 100 to 1000 nM

SMILES: O=C1CCCc2cc(Nc3ncc(Cl)c(Nc4ccccc4-c4cnco4)n3)ccc2N1 [Example 997, 7-[5-Chloro-4-(2-oxazol-5-ylphenylamino)-pyrimidin-2-ylamino]-1,3,4,5-tetrahydro-benzo[b]azepin-2-one]
- IC50 [1, 9]: 100 to 1000 nM
- IC50 [2, 10]: 100 to 1000 nM

SMILES: CCNC(=O)c1cccc(F)c1Nc1nc(Nc2ccc3c(c2)CNC(=O)CCN3C(C)=O)ncc1Cl [Example 1228, 2-[2-(1-Acetyl-4-oxo-1,2,3,4,5,6-hexahydro-benzo[b][1,5]diazocin-8-ylamino)-5-chloro-pyrimidin-4-ylamino]-N-ethyl-3-fluoro-benzamide]
- IC50 [1, 5]: 100 to 1000 nM
- IC50 [2, 6]: < 100 nM
